Assay results as given in US11596650B2, “Composition and method for the treatment of type 2 diabetes” (Vector Vitale IP LLC, priority 2019, dated 2023).

Assay: Accumulation of metals in liver and kidney tissues, intraperitoneal administration to intact rats
Format: in vivo, rat
Method: Animals are placed in cages, 4 per cage, with free access to food/water. […] After the last injection, a half of the animals are maintained on hunger (for 12 hours) with free access to water. Upon expiration of this time period, the animals are taken out of the experiment. The second half of the animals continues to have free access to food/water for a further 7 days. On day 6 after the last injection, the animals are maintained on hunger (for 12 hours) with free access to water. Upon expiration of this time period, the animals are taken out of the experiment.
The total kidney, liver and muscle homogenates were prepared as follows. Organ excision and homogenization were carried out at a temperature of 1-4° C. […] The volume of the used buffer in ml was 5 times larger than the mass of isolated organs in grams. The isolated liver was perfused with chilled saline (0.9% NaCl) via the portal vein using a syringe. The minced liver was transferred to a homogenizer with a finely ground Teflon pestle and homogenized in chilled buffer. An isolated pair of kidneys was perfused with chilled saline, released from adipose tissue and minced with scissors. The minced tissue was transferred to a homogenizer with a finely ground Teflon pestle and homogenized in chilled buffer. The total kidney and liver homogenates were centrifuged at 600 g for 15 minutes. […]

## CC(=O)[O-].CC(=O)[O-].[Zn+2] [Zn acetate, Zinc acetate]
Day 1 and day 7 after discontinuation of the substances
  Zinc in the kidney and liver tissues: significantly increased
Intact rats, intraperitoneal
  All other analyzed metals (manganese and copper) in kidney and liver tissues: within the same concentrations as in the control group
